Strand notation (5' to 3'): a small letter for the sugar, then the base; units joined by * are phosphorothioate-linked, units joined directly phosphodiester-linked; [ ] holds rarer units or linkages, { } end groups; capitals alone tell only the bases. e = 2'-O-(2-methoxyethyl) (MOE); [5mC] = 5-methylcytosine; d = 2'-deoxy (DNA)
Legend:
Assay type in all cases: cell-based
human Factor 7 mRNA [1] = test: Dose-dependent antisense inhibition of human Factor 7 in HepB3 cells, electroporation
Procedure: (§1) The gapmers were also transfected via electroporation and their dose-dependent inhibition of human Factor 7 mRNA was measured. Cells were plated at a density of 20,000 cells per well and transfected via electroporation with 3.125 μM, 6.25 μM, 12.5 μM, 25 μM, 50 μM, and 100 μM concentrations of antisense oligonucleotide, as specified in Table 15. After a treatment period of approximately 16 hours, RNA was isolated from the cells and Factor 7 mRNA levels were measured by quantitative real-time PCR. Human Factor 7 primer probe set RTS 2927 was used to measure mRNA levels. Factor 7 mRNA levels were adjusted according to total RNA content, as measured by RIBOGREEN®. Results are presented as percent inhibition of Factor 7, relative to untreated control cells.
as §1, with “Cells were” for “The gapmers were also transfected via electroporation and their dose-dependent inhibition of human Factor 7 mRNA was measured. Cells were”, “in […]. After a” for “in Table 15. After a”, “cells and human Factor 7” for “cells and Factor 7”

human Factor 7 mRNA [2] = test: Antisense inhibition of human Factor 7 mRNA in HepB3 cells, 50 nM antisense oligonucleotide, lipofectin; conditions: for % Inhibition: Table 13 (microwalk), 50 nM, lipofectin, approximately 24 hours
Summary of the method: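 HepB3 cells were transfected by lipofectin with 50 nM antisense oligonucleotide and harvested after about 24 h. Factor 7 mRNA was measured by real-time RT-PCR (primer probe set RTS 2927 in some runs), normalized to RIBOGREEN total RNA, and reported as percent inhibition versus untreated control.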

human Factor 7 mRNA [3] = test: Dose-dependent antisense inhibition of human Factor 7 in HepB3 cells, lipofectin; conditions: HepB3 cells, approx. 16 hours (Table 14)
Summary of the method: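 HepB3 cells (4,000/well) lipofectin-transfected with antisense oligonucleotide at 3.125 or 6.25 up to 100 nM for ~16 h. Factor 7 mRNA measured by real-time RT-PCR with primer probe set RTS 2927, adjusted to RIBOGREEN total RNA; expressed as percent inhibition versus untreated control cells.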

[4] = 3.125 μM, approx. 16 hours (Table 15, Example 7)
[5] = 3.125 μM, approx. 16 hours (Table 16, Example 8 confirmation)
[6] = 6.25 μM, approx. 16 hours (Table 15, Example 7)
[7] = 6.25 μM, approx. 16 hours (Table 16, Example 8 confirmation)
[8] = 12.5 μM, approx. 16 hours (Table 15, Example 7)
[9] = 12.5 μM, approx. 16 hours (Table 16, Example 8 confirmation)
[10] = 25 μM, approx. 16 hours (Table 15, Example 7)
[11] = 25 μM, approx. 16 hours (Table 16, Example 8 confirmation)
[12] = 50 μM, approx. 16 hours (Table 15, Example 7)
[13] = 50 μM, approx. 16 hours (Table 16, Example 8 confirmation)
[14] = 100 μM, approx. 16 hours (Table 15, Example 7)
[15] = 100 μM, approx. 16 hours (Table 16, Example 8 confirmation)
[16] = oligonucleotides targeted to nucleobases 13760 to 13789 of SEQ ID NO: 1 (Table 10)

| Substance | percent inhibition of Factor 7 mRNA, relative to untreated control cells (human Factor 7 mRNA [1]; [4]) | percent inhibition of Factor 7 mRNA, relative to untreated control cells (human Factor 7 mRNA [1]; [5]) | percent inhibition of Factor 7 mRNA, relative to untreated control cells (human Factor 7 mRNA [1]; [6]) | percent inhibition of Factor 7 mRNA, relative to untreated control cells (human Factor 7 mRNA [1]; [7]) | percent inhibition of Factor 7 mRNA, relative to untreated control cells (human Factor 7 mRNA [1]; [8]) | percent inhibition of Factor 7 mRNA, relative to untreated control cells (human Factor 7 mRNA [1]; [9]) | percent inhibition of Factor 7 mRNA, relative to untreated control cells (human Factor 7 mRNA [1]; [10]) | percent inhibition of Factor 7 mRNA, relative to untreated control cells (human Factor 7 mRNA [1]; [11]) | percent inhibition of Factor 7 mRNA, relative to untreated control cells (human Factor 7 mRNA [1]; [12]) | percent inhibition of Factor 7 mRNA, relative to untreated control cells (human Factor 7 mRNA [1]; [13]) | percent inhibition of Factor 7 mRNA, relative to untreated control cells (human Factor 7 mRNA [1]; [14]) | percent inhibition of Factor 7 mRNA, relative to untreated control cells (human Factor 7 mRNA [1]; [15]) | percent inhibition of Factor 7 mRNA, relative to untreated control cells (human Factor 7 mRNA [3]; 3.125 nM) | percent inhibition of Factor 7 mRNA, relative to untreated control cells (human Factor 7 mRNA [3]; 12.5 nM) | percent inhibition of Factor 7 mRNA, relative to untreated control cells (human Factor 7 mRNA [3]; 25 nM) | percent inhibition of Factor 7 mRNA, relative to untreated control cells (human Factor 7 mRNA [3]; 50 nM) | percent inhibition of Factor 7 mRNA, relative to untreated control cells (human Factor 7 mRNA [3]; 100 nM) | percent inhibition of Factor 7 mRNA, relative to untreated control cells (human Factor 7 mRNA [3]) | % Inhibition (human Factor 7 mRNA levels) (human Factor 7 mRNA [2]; [16]) | % Inhibition (human Factor 7 mRNA [2]) | other results |
| --- | --- | --- | --- | --- | --- | --- | --- | --- | --- | --- | --- | --- | --- | --- | --- | --- | --- | --- | --- | --- | --- |
| 422142 (antisense eG*eA*eG*eT*eT*d[5mC]*dT*dG*d[5mC]*dA*dG*dG*dA*dG*d[5mC]*eG*eG*e[5mC]*e[5mC]*eT) [compound 422142] | 26% | 34% | 47% | 47% | 63% | 62% | 67% | 67% | 77% | 65% | 78% | 65% | 16% | 51% | 66% | 72% | 68% | 34% | – | – | % Inhibition of human Factor 7 mRNA levels (human Factor 7 mRNA [2]; gapmers targeted to nucleobases 4868 to 4899 of SEQ ID NO: 1, Table 8): 73% |
| 422183 (antisense eG*e[5mC]*eG*d[5mC]*d[5mC]*dA*d[5mC]*d[5mC]*d[5mC]*dG*d[5mC]*d[5mC]*dG*dG*d[5mC]*dT*d[5mC]*eT*eG*e[5mC]) [compound 422183] | 16% | 2% | 28% | 3% | 37% | 24% | 44% | 50% | 59% | 64% | 71% | 71% | 28% | 56% | 78% | 84% | 88% | 37% | 79% | – | – |
| 422150 (antisense eG*e[5mC]*eA*dT*dG*dG*dT*dG*dA*dT*dG*d[5mC]*dT*dT*d[5mC]*dT*dG*eA*eA*eT) [compound 422150] | 17% | 0% | 20% | 31% | 40% | 53% | 54% | 67% | 68% | 77% | 83% | 86% | 9% | 38% | 59% | 79% | 87% | 23% | – | 74% | – |
| 422177 (antisense e[5mC]*e[5mC]*e[5mC]*dG*d[5mC]*d[5mC]*dG*dG*d[5mC]*dT*d[5mC]*dT*dG*d[5mC]*dT*d[5mC]*dA*eT*e[5mC]*e[5mC]) [compound 422177] | 3% | – | 10% | – | 29% | – | 21% | – | 31% | – | 63% | – | 12% | 44% | 64% | 81% | 88% | 24% | 74% | – | – |
| 422087 (antisense e[5mC]*eA*eT*eG*e[5mC]*dA*dT*dG*dG*dT*dG*dA*dT*dG*d[5mC]*eT*eT*e[5mC]*eT*eG) [compound 422087] | 22% | 19% | 26% | 38% | 48% | 66% | 57% | 75% | 72% | 80% | 80% | 87% | 14% | 51% | 73% | 83% | 90% | 24% | – | 83% | – |
| 422130 (antisense eG*e[5mC]*e[5mC]*eT*eG*dA*dG*dG*d[5mC]*d[5mC]*dA*dG*d[5mC]*dA*dG*eA*eT*e[5mC]*eA*e[5mC]) [compound 422130] | 28% | 14% | 29% | 24% | 59% | 61% | 61% | 68% | 73% | 82% | 86% | 88% | 4% | 34% | 59% | 77% | 85% | 15% | – | – | % Inhibition (human Factor 7 mRNA levels) (human Factor 7 mRNA [2]; oligonucleotides targeted to nucleobases 14707 to 14732 of SEQ ID NO: 1 (Table 11)): 79% |

Source: patent publication US9029337B2, “Modulation of factor 7 expression” (Isis Pharmaceuticals, Inc., priority 2007, dated 2015)
